Data taken from patent US20250154288A1, “CYTOTOXICITY TARGETING CHIMERAS FOR C-C CHEMOKINE RECEPTOR 2-EXPRESSING CELLS” (GLAXOSMITHKLINE INTELLECTUAL PROPERTY DEVELOPMENT LIMITED, priority 2022, published 2025).
Counter-ions that a name gives are not always drawn.

Columns and labels:
[1] = system: CCR2 expressing cells (CD11b+Ly6c+ Hi) in peripheral blood; assay: In Vivo Depletion Assay (flow cytometry of peripheral blood); parameters: species or system Human CCR2 (hCCR2) knock-in mice; settings: hCCR2 knock-in mice; IV 0.1 mpk compound + 10 mpk anti-cotinine antibody (mouse IgG2a Fc); peripheral blood at 48 hr
Experimental: Human CCR2 (hCCR2) knock-in mice (057 background) were dosed intravenously with a PBS solution containing a compound of Formula (I) to measure depletion of CCR2 expressing cells in peripheral blood. Peripheral blood from IV dosed mice was also analyzed to determine PK properties of the ARM compounds of Formula (I).
Stock solution preparation: Stock solutions of compounds of Formula (I) were prepared at 20 mg/mL and 100 mg/mL in DMSO for PK/PD and dose tolerability studies respectively. Stock solutions were stored at −20° C. until further usage.
Formulations preparation: On the day of experiment, the stock solution of the compound of Formula (I) was removed from storage at −20° C. and thawed at room temperature. Anti-cotinine antibody having a heavy chain sequence of SEQ ID NO: 13 and a light chain sequence of SEQ ID NO: 14 (rabbit variable region sequence with mouse IgG2a Fc domain), if required was removed from storage at −80° C. and thawed at room temperature. Antibody vials were immediately transferred into wet ice after thawing. Compounds of Formula (I) were further diluted in DMSO as per experimental requirements.
Formulation composition: The formulation composition was Saline: DMSO: PBS. Saline was added based on the quantity required and then stock solution of the compound of Formula (I) prepared in DMSO, followed by addition of antibody in PBS. Formulations were incubated at room temperature for 30 minutes before administration to the mouse. DMSO was used at 1 to 2% (v/v) in the final formulation.
Administration to Animal: Solution formulation of antibody and compound of Formula (I) was injected (bolus injection) to the restrained mouse in the right/left lateral tail vein. Animals were dosed with 0.1 milligram per kilogram (mpk) of the compound of Formula (I) and 10 mpk of the anti-cotinine antibody.
Terminal bleeding at end of experiment (48 hr): Approximately 250 μL of blood in K2EDTA tube and approximately 250 μL of blood in SST (serum separation tube) was collected from each mouse through retro-orbital bleeding under deep isoflurane anesthesia. After bleeding, each mouse was sacrificed by cervical dislocation. The blood distribution at termination was determined as follows: • For PK: 50 μL of K2EDTA blood was transferred to another tube for PK • Flow cytometry: Remaining blood (˜200 μL) was used for flow cytometry analysis. • For serum collection: serum separator tubes (BD) were centrifuged at 4° C., 5000 rpm for 15 minutes. Approximately 100 μL serum was separated and stored at −80° C. for further usage. • Blood drug concentration: Samples collected at the various timepoints (0.25 hr, 2 hr, 24 and 48 hr) were analyzed to determine blood drug concentration.
CCR2 depletion in peripheral blood was determined by flow cytometry. Briefly, peripheral blood was collected from all animals at the end of study termination and processed. Blood samples were lysed using 1×RBC Lysis buffer and the resulting cell pellet was washed twice in FACS buffer (HBSS containing 5% FBS). Cells were subjected to Fc blocking using mouse Fc block from Biolegend (Trustain, anti-mouse CD16/32, Cat: 101319) to block non-specific binding followed by surface staining for immune markers (CD45, CD3, CD11b, Ly6C, human CCR2). Surface staining was done for 30 minutes in ice and cells were washed twice to remove unbound antibodies. Cells were stained with 7AAD to determine viability and acquired on BD FACSVerse flow cytometer. Appropriate FMO controls and single-color controls were included in the experiment for gating and compensation respectively.
Percent depletion of CD11b+Ly6c+ Hi cells and CCR2 expression for the different treatment groups was determined. The results are shown below in Table 4 and are reported as percent (%) depletion of CCR2 expressing cells.

[2] = molecular target: T1, CHOK1 cells engineered to overexpress human CCR2 (Homo sapiens, UniProt P41597); assay: Antibody Dependent Cellular Cytotoxicity (ADCC) Reporter Assay; assay type: cell-based; settings: with anti-cotinine antibody (human IgG1 Fc, S239D/I332E); Jurkat FcγRIIIa NFAT-luciferase reporter cells; average if several runs; read-out: ADCC Reporter Assay pEC50 (converted)
T1 construct: expressed in transfected cells; host or cells: CHOK1
Experimental: An antibody dependent cellular cytoxocity reporter assay was conducted using the following four assay components: (i) ARM compound of Formula (I) targeting CCR2 (concentrations ranging from 1 pM to 10 μM) (ii) anti-cotinine antibody having a heavy chain sequence of SEQ ID NO: 11 and a light chain sequence of SEQ ID NO: 12 (rabbit variable region with human IgG1 Fc domain containing a DE mutation (S239D/I332E)) (concentrations ranging from 0.01 μg/mL to 200 μg/mL); (iii) target cells: CHOK1 cells engineered to overexpress either human CCR2 (typically 1000-20,000 cells per well) and (iv) reporter cells: Jurkat cells engineered to express FcγRIIIa with the reporter gene luciferase under the control of the NFAT promoter (typically 3000-75,000 cells per well). Reagents were combined in a final volume of 20 μL in a 384-well tissue culture treated plate. All four assay components were incubated together for about 12-18 hours. Thereafter, BioGlo Detection reagent (Promega) was added to the wells to lyse the cells and provide a substrate for the luciferase reporter protein. Luminescence signal was measured on a microplate reader and signal:background was calculated by dividing the signal of a test well by the signal obtained when no heterobivalent compound of Formula (I) was added. EC50 calculations were done using Graphpad Prism Software, specifically a nonlinear regression curve fit (Y=Bottom+(Top−Bottom)/(1+10 ^((Log EC50−X)*HillSlope))).
ARMs compounds of Formula (I) of the invention were tested for ADCC activity in the above assay in or more experimental runs and the results are shown in Table 3 below. Potency of the compounds of Formula (I) of the invention is reported as a pEC50 value. The pEC50 value is the negative log of the EC50 value, wherein the EC50 value is the half maximal effective concentration measured in molar (M). For compounds tested in more than one experimental run, the pEC50 value is reported as an average.

Row | Structure (SMILES) | % Depletion of CCR2 expressing cells [1] | EC50 [2]
1 | CO[C@@H]1COCC[C@@H]1N[C@@H]1CC[C@](COCCNC(=O)[C@H]2CC[C@H](NC(=O)CCCO[C@H]3CC[C@H](OCCNC(=O)[C@H]4CC(=O)N(C)[C@@H]4c4cccnc4)CC3)CC2)(C(=O)N2CCc3ncc(C(F)(F)F)cc3C2)C1 [Example 11, (2S,3S)-N-(2-(((1R,4S)-4-(4-(((1S,4R)-4-((2-(((1S,3R)-3-(((3S,4S)-3-Methoxytetrahydro-2H-pyran-4-yl)amino)-1-(3-(trifluoromethyl)-5,6,7,8-tetrahydro-1,6-naphthyridine-6-carbonyl)cyclopentyl)methoxy)ethyl)carbamoyl)cyclohexyl)amino)-4-oxobutoxy)cyclohexyl)oxy)ethyl)-1-methyl-5-oxo-2-(pyridin-3-yl)pyrrolidine-3-carboxamide] | 89.3% | 2.51 nM
2 | CO[C@@H]1COCC[C@@H]1N[C@@H]1CC[C@](CCCNC(=O)CCOCCOCCO[C@H]2CC[C@H](OCCNC(=O)[C@H]3CC(=O)N(C)[C@@H]3c3cccnc3)CC2)(C(=O)N2CCc3ncc(C(F)(F)F)cc3C2)C1 [Example 20, ((2S,3S)—N-(2-(((1r,4S)-4-(2-(2-(3-((3-((1S,3R)-3-(((3S,4S)-3-Methoxytetrahydro-2H-pyran-4-yl)amino)-1-(3-(trifluoromethyl)-5,6,7,8-tetrahydro-1,6-naphthyridine-6-carbonyl)cyclopentyl)propyl)amino)-3-oxopropoxy)ethoxy)ethoxy)cyclohexyl)oxy)ethyl)-1-methyl-5-oxo-2-(pyridin-3-yl)pyrrolidine-3-carboxamide, Formic acid salt] | 87.3% | 3.98 nM
3 | CO[C@@H]1COCC[C@@H]1N[C@@H]1CC[C@@](C(=O)N2Cc3cc(C(F)(F)F)cnc3[C@H](NC(=O)[C@H]3CC[C@H](NC(=O)CCCO[C@H]4CC[C@H](OCCNC(=O)[C@H]5CC(=O)N(C)[C@@H]5c5cccnc5)CC4)CC3)C2)(C(C)C)C1 [Example 14, (2S,3S)-N-(2-(((1R,4S)-4-(4-(((1R,4R)-4-(((R)-6-((1S,3R)-1-isopropyl-3-(((3S,4S)-3-methoxytetrahydro-2H-pyran-4-yl)amino)cyclopentane-1-carbonyl)-3-(trifluoromethyl)-5,6,7,8-tetrahydro-1,6-naphthyridin-8-yl)carbamoyl)cyclohexyl)amino)-4-oxobutoxy)cyclohexyl)oxy)ethyl)-1-methyl-5-oxo-2-(pyridin-3-yl)pyrrolidine-3-carboxamide, 3Formic acid salt] | 92.3% | < 0.002 nM
4 | CO[C@@H]1COCC[C@@H]1N[C@@H]1CC[C@@](C(=O)N2CCc3nc(CCCCOc4cccc(C(=O)NCCOCCOCCOCCOCCOCCOCCOCCOCCOCCNC(=O)[C@H]5CC(=O)N(C)[C@@H]5c5cccnc5)c4)c(C(F)(F)F)cc3C2)(C(C)C)C1 [Example 22, (2S,3S)—N-(1-(3-(4-(6-((1S,3R)-1-Isopropyl-3-(((3S,4S)-3-methoxytetrahydro-2H-pyran-4-yl)amino)cyclopentane-1-carbonyl)-3-(trifluoromethyl)-5,6,7,8-tetrahydro-1,6-naphthyridin-2-yl)butoxy)phenyl)-1-oxo-5,8,11,14,17,20,23,26,29-nonaoxa-2-azahentriacontan-31-yl)-1-methyl-5-oxo-2-(pyridin-3-yl)pyrrolidine-3-carboxamide] | 89% | 1.58 nM
5 | CO[C@@H]1COCC[C@@H]1N[C@@H]1CC[C@](CCCNC(=O)[C@H]2CC[C@@H](NC(=O)CCOCCOCCOCCNC(=O)[C@H]3CC(=O)N(C)[C@@H]3c3cccnc3)CC2)(C(=O)N2CCc3ncc(C(F)(F)F)cc3C2)C1 [Example 17, (2S,3S)—N-(2-(2-(2-(3-(((1R,4s)-4-((3-((1S,3R)-3-(((3S,4S)-3-Methoxytetrahydro-2H-pyran-4-yl)amino)-1-(3-(trifluoromethyl)-5,6,7,8-tetrahydro-1,6-naphthyridine-6-carbonyl)cyclopentyl)propyl)carbamoyl)cyclohexyl)amino)-3-oxopropoxy)ethoxy)ethoxy)ethyl)-1-methyl-5-oxo-2-(pyridin-3-yl)pyrrolidine-3-carboxamide, Formic acid salt] | 96.07% | 6.31 nM
6 | CO[C@@H]1COCC[C@@H]1N[C@@H]1CC[C@@](C(=O)N2Cc3cc(C(F)(F)F)cnc3[C@@H](NC(=O)[C@H]3CC[C@H](NC(=O)CCCO[C@H]4CC[C@H](OCCNC(=O)[C@H]5CC(=O)N(C)[C@@H]5c5cccnc5)CC4)CC3)C2)(C(C)C)C1 [Example 15, (2S,3S)-N-(2-(((1R,4S)-4-(4-(((1S,4R)-4-(((S)-6-((1S,3R)-1-isopropyl-3-(((3S,4S)-3-methoxytetrahydro-2H-pyran-4-yl)amino)cyclopentane-1-carbonyl)-3-(trifluoromethyl)-5,6,7,8-tetrahydro-1,6-naphthyridin-8-yl)carbamoyl)cyclohexyl)amino)-4-oxobutoxy)cyclohexyl)oxy)ethyl)-1-methyl-5-oxo-2-(pyridin-3-yl)pyrrolidine-3-carboxamide] | 94.04% | 0.2 nM
7 | CO[C@H]1COCC[C@H]1N[C@H]1CC[C@@](CCCNC(=O)[C@H]2CC[C@@H](NC(=O)CCOCCOCCNC(=O)CCNC(=O)[C@H]3CC(=O)N(C)[C@@H]3c3cccnc3)CC2)(C(=O)N2CCc3ncc(C(F)(F)F)cc3C2)C1 [Example 19, (2S,3S)—N-(3-((2-(2-(3-(((1s,4s)-4-((3-((1R,3S)-3-(((3R,4R)-3-Methoxytetrahydro-2H-pyran-4-yl)amino)-1-(3-(trifluoromethyl)-5,6,7,8-tetrahydro-1,6-naphthyridine-6-carbonyl)cyclopentyl)propyl)carbamoyl)cyclohexyl)amino)-3-oxopropoxy)ethoxy)ethyl)amino)-3-oxopropyl)-1-methyl-5-oxo-2-(pyridin-3-yl)pyrrolidine-3-carboxamide] | 85.39% | 3.16 nM
